# Experimental data: PubChem BioAssay (NCI)
#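 Abbreviation: GI50, concentration required for 50% inhibition of growth. TGI: concentration producing complete growth inhibition.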
# Key:
# Experiment in all cases: growth of human tumour cells (NCI), 384-well format
# [1] = tested on: U251 glioblastoma
# [2] = tested on: MDA-MB-468 breast
# [3] = tested on: OVCAR-3 ovarian
# [4] = tested on: MDA-MB-435 melanoma
# [5] = tested on: SK-MEL-28 melanoma
# [6] = tested on: RXF 393 renal
# [7] = tested on: KM12 colon
# [8] = tested on: MALME-3M melanoma
# [9] = tested on: COLO 205 colon
# [10] = tested on: TK-10 renal
# [11] = tested on: SN12C renal
# [12] = tested on: ACHN renal
# [13] = tested on: SR leukemia
compound,measurement,setting,value
C1=C/COCc2cc(ccc2OCCN2CCCC2)Nc2nccc(n2)-c2cccc(c2)COC/1,GI50,[1],1.54 µM
same,TGI,[1],3.29 µM
same,GI50,[2],1.66 µM
same,TGI,[2],3.03 µM
same,GI50,[3],0.988 µM
same,TGI,[3],2.27 µM
same,GI50,[4],1.32 µM
same,TGI,[4],2.73 µM
same,GI50,[5],1.19 µM
same,TGI,[5],2.44 µM
same,GI50,[6],1.21 µM
same,TGI,[6],2.47 µM
same,GI50,[7],0.321 µM
same,TGI,[7],1.33 µM
same,GI50,[8],0.829 µM
same,TGI,[8],2.02 µM
same,GI50,[9],1.09 µM
same,TGI,[9],2.47 µM
same,GI50,[10],1.33 µM
same,TGI,[10],3.56 µM
same,GI50,[11],0.704 µM
same,TGI,[11],2.01 µM
same,GI50,[12],0.87 µM
same,TGI,[12],4.43 µM
same,GI50,[13],0.152 µM
same,TGI,[13],0.303 µM
